Patent publication US12595591B2, “Peptide libraries having enhanced subsequence diversity and methods for use thereof” (ROCHE […], INC., priority 2019, dated 2026)
No end group written: not given here.

Legend:
[1] = target: T1, biotin-labeled DsbA (Escherichia coli, UniProt P0AEG4); test: Peptide microarray binding of biotin-labeled DsbA, Cy5-streptavidin fluorescence detection; details: fluorescent signal intensity measured by peptide microarray
T1 construct: purchased abcam
T1 sequence (P0AEG4 20-208): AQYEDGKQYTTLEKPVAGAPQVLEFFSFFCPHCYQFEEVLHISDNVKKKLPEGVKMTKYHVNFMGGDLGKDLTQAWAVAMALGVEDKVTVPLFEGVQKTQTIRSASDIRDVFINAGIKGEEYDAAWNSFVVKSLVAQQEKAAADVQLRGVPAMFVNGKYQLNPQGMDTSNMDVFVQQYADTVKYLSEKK
From the text: Briefly, the peptide array was synthesized by light-directed array synthesis in a Roche NimbleGen Maskless Array Synthesizer (MAS) using an amino-functionalized substrate as previously reported (Forsström, et al., “Proteome-wide Epitope Mapping of Antibodies Using Ultra-dense Peptide Arrays,” Molecular & Cellular Proteomics 13:1585-1597 (2014) and Lyamichev, et al., “Stepwise Evolution Improves Identification of Diverse Peptides Binding to a Protein Target,” Nature Scientific Reports 7:12116 (2017), both of which are incorporated herein by reference in their entireties). L-amino acids were synthesized by Orgentis Chemicals GmbH. Custom amino acids were purchased from Lifetein. Cy5™-streptavidin was purchased from GE Healthcare, Blocker™ BSA (10%) in PBS from ThermoFisher, and SecureSeal™ hybridization chambers from Grace Bio-Labs. Final side chain deprotection was performed by incubating the microarray in 60 mM EDT and 25 mM TIPS in 95% TFA (v/v) for 30 min at room temperature. The microarray was then washed twice in methanol for 30 seconds, once in 1×TBST for 1 min, twice in TBS for 30 seconds, and then spun dry in a microcentrifuge equipped with an array holder. […] Here, 2.6 μL biotin-labeled DsbA (1.5 mg/mL, abcam) was incubated on the array in 49 μL binding buffer containing 100 mM HEPES (pH 7.3), 1% BSA, 250 mM NaCl, 20 mM L-glutathione-reduced, and 0.2 mM L-glutathione-oxidized in a hybridization chamber overnight at 4° C. After incubation, arrays were washed in water for 15 seconds placed directly into a streptavidin-Cy5 detection bath. Positive binding to DsbA was determined by the detection of Streptavidin-Cy5. Streptavidin-Cy5 binding to all arrays was performed with 20 μL streptavidin-Cy5 (1 μg/mL) in 30 mL binding buffer containing 10 mM Tris-HCl (pH 7.4), 1% Casein, 0.05% Tween-20 in a 30 mL pap jar for 1 hour at room temperature. After incubation, arrays were washed in 20 mM Tris-HCl (pH 7.8), 0.2 M NaCl, 1% SDS for 30 seconds followed by a 30 seconds wash in water. The arrays were then dried by spinning in a microcentrifuge equipped with an array holder. Data was analyzed by measuring Cy5 fluorescence intensity of the arrays and extracting data, as previously described in Lyamichev, et al. (2017).
To narrow the number of possible 15-mer peptides in both libraries down to approximately 3 million peptides, a calculation was run to select for the maximum diversity of 6mer peptide sequences. Each 15-mer sequence was replicated two times.

[2] = target: T1, biotin-labeled DsbA; test: Biacore kinetic analysis of peptide binding to immobilized biotin-labeled DsbA
Procedure: The discovered and incrementally optimized novel DsbA-binding peptides were subject to kinetic characterization. Kinetic analysis of the interaction between the discovered peptides and DsbA was performed using a Biacore XI00. Biotin-labeled DsbA (1 uM) was immobilized on streptavidin coated chip (GE Healthcare) to a target level of 1,000 response units in HBS-P+. […] Fourteen dilutions of peptide from 5000 nM to 0.6 nM in HBS-P+ were flowed over the DsbA coated chip in triplicate with a contact time of 120 seconds and a dissociation time of 600 seconds. […] All peptides were amidated on the C-terminus.

**Q.** Which “SIGNAL INTENSITY” value [1] does the source give for SIIGMCYKKDPS-NH2 here?
**A.** Its value is 1365.

**Q.** Which results are given for DFWHGDTCKVTQFDQ-NH2?
**A.** koff [2]: 0.0271 s⁻¹; kon [2]: 130000 M⁻¹ s⁻¹; SIGNAL INTENSITY [1]: 1750

**Q.** For NDYQYKGQQCLDPKY-NH2, which koff [2] is on record?
**A.** The koff was 0.0246 s⁻¹.

**Q.** What about the kon [2] of the same substance?
**A.** Its kon is 515000 M⁻¹ s⁻¹.

**Q.** What about the “SIGNAL INTENSITY” value [1] of the same substance?
**A.** Its value is 3623.

**Q.** For VIGQCLKN-NH2, which “SIGNAL INTENSITY” value [1] is on record?
**A.** Its value is 588.

**Q.** With VILGQCLKQ-NH2 as the substance, how does the “SIGNAL INTENSITY” value [1] read?
**A.** Its value is 965.

**Q.** Which results are given for HNWAAQCLKDQAKL-NH2?
**A.** koff [2]: 0.0448 s⁻¹; kon [2]: 509000 M⁻¹ s⁻¹; SIGNAL INTENSITY [1]: 1759

**Q.** For PSPWATCDF-NH2, which “SIGNAL INTENSITY” value [1] is on record?
**A.** Its value is 82.

**Q.** For WQYENWAITKWQCVK-NH2, which “SIGNAL INTENSITY” value [1] is on record?
**A.** The value was 1427.

**Q.** YVYGMCWKDYTTDK-NH2 was tested. Which koff [2] did it give?
**A.** The koff was 0.057 s⁻¹.

**Q.** And the kon [2]?
**A.** Its kon is 728000 M⁻¹ s⁻¹.

**Q.** And the “SIGNAL INTENSITY” value [1]?
**A.** Its value is 2297.

**Q.** VIVGQCLKK-NH2 was tested. Which “SIGNAL INTENSITY” value [1] did it give?
**A.** Its value is 282.

**Q.** For YVYGMCWKDYTDTDK-NH2, which koff [2] is on record?
**A.** Its koff is 0.0627 s⁻¹.

**Q.** What about the kon [2] of the same substance?
**A.** Its kon is 538000 M⁻¹ s⁻¹.

**Q.** And the “SIGNAL INTENSITY” value [1]?
**A.** The value was 2114.

**Q.** DFWHGEQCKVTQFDQ-NH2 was tested. Which koff [2] did it give?
**A.** The koff was 0.0139 s⁻¹.

**Q.** And the kon [2]?
**A.** The kon was 259000 M⁻¹ s⁻¹.

**Q.** What about the “SIGNAL INTENSITY” value [1] of the same substance?
**A.** Its value is 4590.

**Q.** Which koff [2] does the source give for HNWAAQCLNPDQAKL-NH2 here?
**A.** The koff was 0.0292 s⁻¹.

**Q.** And the kon [2]?
**A.** Its kon is 510000 M⁻¹ s⁻¹.

**Q.** What about the “SIGNAL INTENSITY” value [1] of the same substance?
**A.** The value was 2640.

**Q.** How did the koff [2] turn out when DFWHGETCKVTQFDQ-NH2 was run?
**A.** The koff was 0.0185 s⁻¹.

**Q.** And the kon [2]?
**A.** Its kon is 220000 M⁻¹ s⁻¹.

**Q.** And the “SIGNAL INTENSITY” value [1]?
**A.** Its value is 1801.
